In article PMC7830303, “Development of Antimicrobial Stapled Peptides Based on Magainin 2 Sequence” (Molecules, 2021):
In brackets after ≈: the same amount, converted by molar mass. Bridge positions count the residues as written; N and C are the ends. Square brackets hold non-standard residues; d marks the D form. Peptide text beside a SMILES is read from it. * marks the point of attachment. Stearoyl = CCCCCCCCCCCCCCCCCC(=O)*; R8 = C=CCCCCCC[C@@](C)(N)C(=O)O; Lauroyl = CCCCCCCCCCCC(=O)*; S5 = C=CCCC[C@](C)(N)C(=O)O; Hexanoyl = CCCCCC(=O)*

How the values were obtained:
[1] = test system: multiple-drug resistant P. aeruginosa (MDRP); type: cell-based, Pseudomonas aeruginosa; conditions: multiple-drug resistant (MDRP, 16 h)
Description: (§1) Selected bacterial strains were obtained from Biological Resource Center, NITE (NBRC; Tokyo, Japan). E. coli DH5α was purchased from BioDynamics Laboratory, Inc. (Tokyo, Japan). The antimicrobial activities of the peptides against the gram-positive S. aureus and gram-negative E. coli DH5α, P. aeruginosa, and MDRP were measured using standard broth microdilution method as previously described. Briefly, the bacteria were inoculated and grown overnight at 37 °C on agar media for other organisms i and then collected with liquid media for other organisms ii, according to Japanese Pharmacopoeia, 17th Edition. Each peptide was 2-fold serially diluted with an initial concentration of 500 μM to a final concentration of 1 μM using PBS. Then, 10 μL of the peptide solution was added to each well of a sterile 96-well plate. Subsequently, 90 μL of inoculation with 10^4 colony forming units (CFUs) per mL were added to each well, and the plate was incubated at 35 °C for 16 h.

[2] = test system: Escherichia coli DH5α; type: cell-based; conditions: 16 h
Description: as §1

[3] = test system: Pseudomonas aeruginosa; type: cell-based; conditions: 16 h
Description: as §1

[4] = test system: Staphylococcus aureus; type: cell-based; conditions: 16 h
Description: as §1

[5] = pH 7.4

Structure (SMILES)	MIC, Gram Negative, MDRP [1]	MIC, Gram Negative, E.c. (DH5α) [2]	MIC, Gram Negative, P.a. [3]	MIC, Gram Positive, S.a. [4]	Solubility in the aqueous buffer solution [5]
CC[C@H](C)[C@H](NC(=O)CN)C(=O)N[C@@H](CCCCN)C(=O)N[C@@H](CCCCN)C(=O)N[C@@H](Cc1ccccc1)C(=O)N[C@@H](CC(C)C)C(=O)N[C@@H](CCCCN)C(=O)N[C@@H](CO)C(=O)N[C@]1(C)CCCCCCC=CCCC[C@@](C)(C(=O)N[C@@H](CCCCN)C(N)=O)NC(=O)[C@H](C)NC(=O)[C@H](CCCCN)NC(=O)[C@H](C(C)C)NC(=O)[C@H](Cc2ccccc2)NC(=O)[C@H](CCCCN)NC(=O)[C@H](CCCCN)NC1=O [Peptide 9] (H-GIKKFLKS[R8]KKFVKA[S5]K-NH2; staple 9-16)	3.125 µM (≈ 6.38 µg/mL)	3.125 µM (≈ 6.38 µg/mL)	6.25 µM (≈ 12.8 µg/mL)	6.25 µM (≈ 12.8 µg/mL)	–
CCCCCCCCCCCCCCCCCC(=O)N[C@@]1(C)CCCC=CCCC[C@@](C)(C(=O)N[C@@H](CC(C)C)C(=O)N[C@@H](CCCCN)C(=O)N[C@@H](CO)C(=O)N[C@@H](C)C(=O)N[C@@H](CCCCN)C(=O)N[C@@H](CCCCN)C(=O)N[C@@H](Cc2ccccc2)C(=O)N[C@H](C(=O)N[C@@H](CCCCN)C(=O)N[C@@H](C)C(=O)N[C@@H](Cc2ccccc2)C(=O)N[C@@H](CCCCN)C(N)=O)C(C)C)NC(=O)[C@H](CCCCN)NC(=O)[C@H](CCCCN)NC(=O)[C@H]([C@@H](C)CC)NC1=O [Peptide C18-2] (Stearoyl-[S5]IKK[S5]LKSAKKFVKAFK-NH2; staple 1-5)	>50 µM	>50 µM	>50 µM	>50 µM	poor solubility
CC[C@H](C)[C@H](NC(=O)CN)C(=O)N[C@@H](CCCCN)C(=O)N[C@@H](CCCCN)C(=O)N[C@@H](Cc1ccccc1)C(=O)N[C@@H](CC(C)C)C(=O)N[C@@H](CCCCN)C(=O)N[C@@]1(C)CCCC=CCCC[C@@](C)(C(=O)N[C@H](C(=O)N[C@@H](CCCCN)C(=O)N[C@@H](C)C(=O)N[C@@H](Cc2ccccc2)C(=O)N[C@@H](CCCCN)C(N)=O)C(C)C)NC(=O)[C@H](CCCCN)NC(=O)[C@H](CCCCN)NC(=O)[C@H](C)NC1=O [Peptide 4] (H-GIKKFLK[S5]AKK[S5]VKAFK-NH2; staple 8-12)	0.78 µM (≈ 1.55 µg/mL)	1.56 µM (≈ 3.09 µg/mL)	1.56 µM (≈ 3.09 µg/mL)	6.25 µM (≈ 12.4 µg/mL)	–
CCCCCC(=O)N[C@@]1(C)CCCC=CCCC[C@@](C)(C(=O)N[C@@H](CC(C)C)C(=O)N[C@@H](CCCCN)C(=O)N[C@@H](CO)C(=O)N[C@@H](C)C(=O)N[C@@H](CCCCN)C(=O)N[C@@H](CCCCN)C(=O)N[C@@H](Cc2ccccc2)C(=O)N[C@H](C(=O)N[C@@H](CCCCN)C(=O)N[C@@H](C)C(=O)N[C@@H](Cc2ccccc2)C(=O)N[C@@H](CCCCN)C(N)=O)C(C)C)NC(=O)[C@H](CCCCN)NC(=O)[C@H](CCCCN)NC(=O)[C@H]([C@@H](C)CC)NC1=O [Peptide C6-2] (Hexanoyl-[S5]IKK[S5]LKSAKKFVKAFK-NH2; staple 1-5)	3.125 µM (≈ 6.6 µg/mL)	1.56 µM (≈ 3.29 µg/mL)	3.125 µM (≈ 6.6 µg/mL)	1.56 µM (≈ 3.29 µg/mL)	–
CC[C@H](C)[C@H](NC(=O)CN)C(=O)N[C@@H](CCCCN)C(=O)N[C@@H](CCCCN)C(=O)N[C@@H](Cc1ccccc1)C(=O)N[C@@H](CC(C)C)C(=O)N[C@@H](CCCCN)C(=O)N[C@@H](CO)C(=O)N[C@@H](C)C(=O)N[C@@H](CCCCN)C(=O)N[C@@H](CCCCN)C(=O)N[C@@]1(C)CCCC=CCCC[C@@](C)(C(=O)N[C@@H](CCCCN)C(N)=O)NC(=O)[C@H](C)NC(=O)[C@H](CCCCN)NC(=O)[C@H](C(C)C)NC1=O [Peptide 6] (H-GIKKFLKSAKK[S5]VKA[S5]K-NH2; staple 12-16)	0.78 µM (≈ 1.5 µg/mL)	1.56 µM (≈ 3 µg/mL)	1.56 µM (≈ 3 µg/mL)	3.125 µM (≈ 6.01 µg/mL)	–
CCCCCCCCCCCC(=O)N[C@@]1(C)CCCC=CCCC[C@@](C)(C(=O)N[C@@H](CC(C)C)C(=O)N[C@@H](CCCCN)C(=O)N[C@@H](CO)C(=O)N[C@@H](C)C(=O)N[C@@H](CCCCN)C(=O)N[C@@H](CCCCN)C(=O)N[C@@H](Cc2ccccc2)C(=O)N[C@H](C(=O)N[C@@H](CCCCN)C(=O)N[C@@H](C)C(=O)N[C@@H](Cc2ccccc2)C(=O)N[C@@H](CCCCN)C(N)=O)C(C)C)NC(=O)[C@H](CCCCN)NC(=O)[C@H](CCCCN)NC(=O)[C@H]([C@@H](C)CC)NC1=O [Peptide C12-2] (Lauroyl-[S5]IKK[S5]LKSAKKFVKAFK-NH2; staple 1-5)	25 µM (≈ 54.9 µg/mL)	6.25 µM (≈ 13.7 µg/mL)	12.5 µM (≈ 27.4 µg/mL)	6.25 µM (≈ 13.7 µg/mL)	–
CC[C@H](C)[C@H](NC(=O)CN)C(=O)N[C@@H](CCCCN)C(=O)N[C@@H](CCCCN)C(=O)N[C@@H](Cc1ccccc1)C(=O)N[C@@H](CC(C)C)C(=O)N[C@@H](CCCCN)C(=O)N[C@]1(C)CCCCCCC=CCCC[C@@](C)(C(=O)N[C@@H](Cc2ccccc2)C(=O)N[C@@H](CCCCN)C(N)=O)NC(=O)[C@H](CCCCN)NC(=O)[C@H](C(C)C)NC(=O)[C@H](Cc2ccccc2)NC(=O)[C@H](CCCCN)NC(=O)[C@H](CCCCN)NC(=O)[C@H](C)NC1=O [Peptide 8] (H-GIKKFLK[R8]AKKFVK[S5]FK-NH2; staple 8-15)	3.125 µM (≈ 6.57 µg/mL)	6.25 µM (≈ 13.1 µg/mL)	>50 µM	>50 µM	–
CC[C@H](C)[C@@H]1NC(=O)[C@@](C)(N)CCCC=CCCC[C@@](C)(C(=O)N[C@@H](CC(C)C)C(=O)N[C@@H](CCCCN)C(=O)N[C@@H](CO)C(=O)N[C@@H](C)C(=O)N[C@@H](CCCCN)C(=O)N[C@@H](CCCCN)C(=O)N[C@@H](Cc2ccccc2)C(=O)N[C@H](C(=O)N[C@@H](CCCCN)C(=O)N[C@@H](C)C(=O)N[C@@H](Cc2ccccc2)C(=O)N[C@@H](CCCCN)C(N)=O)C(C)C)NC(=O)[C@H](CCCCN)NC(=O)[C@H](CCCCN)NC1=O [Peptide 2] (H-[S5]IKK[S5]LKSAKKFVKAFK-NH2; staple 1-5)	1.56 µM (≈ 3.14 µg/mL)	1.56 µM (≈ 3.14 µg/mL)	1.56 µM (≈ 3.14 µg/mL)	3.125 µM (≈ 6.29 µg/mL)	–
CC[C@H](C)[C@H](NC(=O)CN)C(=O)N[C@@H](CCCCN)C(=O)N[C@@H](CCCCN)C(=O)N[C@]1(C)CCCCCCC=CCCC[C@@](C)(C(=O)N[C@H](C(=O)N[C@@H](CCCCN)C(=O)N[C@@H](C)C(=O)N[C@@H](Cc2ccccc2)C(=O)N[C@@H](CCCCN)C(N)=O)C(C)C)NC(=O)[C@H](CCCCN)NC(=O)[C@H](CCCCN)NC(=O)[C@H](C)NC(=O)[C@H](CO)NC(=O)[C@H](CCCCN)NC(=O)[C@H](CC(C)C)NC1=O [Peptide 7] (H-GIKK[R8]LKSAKK[S5]VKAFK-NH2; staple 5-12)	1.56 µM (≈ 3.07 µg/mL)	3.125 µM (≈ 6.14 µg/mL)	3.125 µM (≈ 6.14 µg/mL)	25 µM (≈ 49.1 µg/mL)	–
CC[C@H](C)[C@H](NC(=O)CN)C(=O)N[C@@H](CCCCN)C(=O)N[C@@H](CCCCN)C(=O)N[C@@H](Cc1ccccc1)C(=O)N[C@@H](CC(C)C)C(=O)N[C@@H](CCCCN)C(=O)N[C@@H](CO)C(=O)N[C@@]1(C)CCCC=CCCC[C@@](C)(C(=O)N[C@@H](CCCCN)C(=O)N[C@@H](C)C(=O)N[C@@H](Cc2ccccc2)C(=O)N[C@@H](CCCCN)C(N)=O)NC(=O)[C@H](Cc2ccccc2)NC(=O)[C@H](CCCCN)NC(=O)[C@H](CCCCN)NC1=O [Peptide 5] (H-GIKKFLKS[S5]KKF[S5]KAFK-NH2; staple 9-13)	3.125 µM (≈ 6.4 µg/mL)	1.56 µM (≈ 3.19 µg/mL)	6.25 µM (≈ 12.8 µg/mL)	12.5 µM (≈ 25.6 µg/mL)	–
CC[C@H](C)[C@H](NC(=O)CN)C(=O)N[C@@H](CCCCN)C(=O)N[C@@H](CCCCN)C(=O)N[C@@]1(C)CCCC=CCCC[C@@](C)(C(=O)N[C@@H](CCCCN)C(=O)N[C@@H](CCCCN)C(=O)N[C@@H](Cc2ccccc2)C(=O)N[C@H](C(=O)N[C@@H](CCCCN)C(=O)N[C@@H](C)C(=O)N[C@@H](Cc2ccccc2)C(=O)N[C@@H](CCCCN)C(N)=O)C(C)C)NC(=O)[C@H](CO)NC(=O)[C@H](CCCCN)NC(=O)[C@H](CC(C)C)NC1=O [Peptide 3] (H-GIKK[S5]LKS[S5]KKFVKAFK-NH2; staple 5-9)	0.78 µM (≈ 1.56 µg/mL)	1.56 µM (≈ 3.12 µg/mL)	3.125 µM (≈ 6.25 µg/mL)	3.125 µM (≈ 6.25 µg/mL)	–
